Assay results: patent publication US20230107216A1, “PANTETHEINE DERIVATIVES AND USES THEREOF” (Comet Therapeutics, Inc., priority 2018, published 2023)

These compounds were tested on oligodendrocyte precursor cells (OPC) in mixed brain cultures (assay: Oligodendrocyte precursor cells (OPC) proliferation, O4+ cell count). Conditions: 10 uM.
Format: cell-based, mouse
Procedure: The effect of compounds of the present disclosure was determined on oligodendrocyte precursor cells proliferation (OPC).
Cell culture. Brains of wild type mice (whole brain from 1 or 2 mouse pups) less than postnatal day (P) 2 were isolated and cultured. Briefly, following removal of the meninges, cells were dissociated with 0.25% EDTA/CMF-DMEM and 1% Trypsin (1:1), plated at a density of 75,000 cells/on 0.1 mg/ml poly-L-lysine coated borosilicate glass coverslips in 24-well plates, grown in OPC differentiation media (Oligo media) consisting of DMEM/F12 (Invitrogen 21331-020) supplemented with 1% FBS, 1% N2 Neural Supplement (Invitrogen 17502-048) and PDGF receptor alpha growth factor (Invitrogen 17502-048). Cells were fed every other day and allowed to grow for 7 days in vitro (DIV).
OPCs treatment with compounds of the present disclosure. Cells were treated with compounds of the present disclosure (50-10 μM) or vehicle (0.1% DMSO) starting at 7 DIV. Media was replaced daily with freshly made working solutions of compounds or vehicle for either 48 h (9 DIV total) or 96 h (11 DIV). The 48 h group consisted of 1 coverslip per condition. The 96 h group was treated in duplicate.
Fresh aliquots of compounds of the present disclosure were made up on the day of treatment, briefly, a 50 mM stock was thawed and used to make up fresh 50 μM working solution in Oligo Media. The fresh 50 μM working solution was diluted further in Oligo Media to make 10 μM working solution. Vehicle controls was made up in fresh Oligo Media using the appropriate amount of vehicle (DMSO). Coverslips were stored in clean 24-well plates at 4° C. until fixed-staining. Cells were imaged using Leica DM5500 fluorescent microscope with LAS-X software.
Exposure settings were maintained at the same rate across compounds of the same time-point. Cells were imaged at 20× and 40× magnifications. At least 5 images were taken per condition. Most conditions had at least 5 images that were counted. 20× images were utilized for counting DAPI (cell nuclei) and O4+ cells.
Total DAPI per image for all images was counted using ImageJ as here indicated. • Image was converted to 8 bit • Blue Channel (DAPI) was automatically thresholded by default ImageJ settings • Image noise was reduced by ImageJ>Process>Noise>Despeckle • ImageJ>Process>Binary>Watershed was used to automatically separate merged cell nuclei • ImageJ>Analyze>Analyze Particles was used to obtain final count of DAPI per image • Total number of DAPI-positive cells
Total number of O4+ cells per 20× image was manually counted using Adobe Photoshop: • All cell bodies of OPCs with underlying DAPI stain were counted as an O4+ cell • Total number of O4+ cells were recorded in Excel Spreadsheet O4+ cells in mixed brain cultures of wild type mice <P2 treated with compounds of the present disclosure or vehicle were quantified per condition (time point and concentration). The following formula was used to normalize the total cell counts within a compound as well as across compounds treated for the same duration (48h vs. 96h):
(number of O4+cell counts in Compound X/Average DAPI count for Compound X)*Total Average DAPI count across compounds of same Time Point
Values were plotted as Scatter Interval plots in Origin. Each data point represents a single image from which O4+ cell values were obtained. Data are presented as mean±S.E.
Images are at 20× magnification and represent 1-2 coverslips per group. Scale bar, 50 μm.

| SMILES | % Increase OPC proliferation [%] |
| --- | --- |
| CC(C)(CO)[C@@H](O)C(=O)NCCC(=O)NCCSC(=O)CCC(=O)O [Compound 1, (R)-4-((2-(3-(2,4-dihydroxy-3,3-dimethylbutanamido)propanamido)ethyl)thio)-4-oxobutanoic acid] | ≥25 |
| CC(C)(CO)[C@@H](O)C(=O)NCCC(=O)NCCSC(=O)CCCN [Compound 370, (2R)—N-[2-([2-[(4-aminobutanoyl)sulfanyl]ethyl]carbamoyl)ethyl]-2,4-dihydroxy-3,3-dimethylbutanamide] | ≥10 |
| COC(=O)CC(C(C)=O)C(=O)SCCNC(=O)CCNC(=O)[C@H](O)C(C)(C)CO (some centres unmarked) [Compound 410] | ≥25 |
| C[C@@H](O)CC(=O)SCCNC(=O)CCNC(=O)[C@H](O)C(C)(C)CO [Compound 38, S-2-{3-[(R)-2,4-dihydroxy-3,3-dimethylbutyrylamino]propionylamino} ethyl (R)-3-hydroxybutanethioate] | ≥25 |
| CC(=O)SCCNC(=O)CCNC(=O)[C@H](O)C(C)(C)COC(=O)[C@@H](N)Cc1ccc(O)c(O)c1 [Compound 498, (3R)-3-[(2-[[2-(acetylsulfanyl)ethyl]carbamoyl]ethyl)carbamoyl]-3-hydroxy-2,2-dimethylpropyl (2S)-2-amino-3-(3,4-dihydroxyphenyl)propanoate] | ≥25 |
